According to ChEMBL document CHEMBL1134209, “Syntheses and evaluation of pyrido[2,3-dlpyrimidine-2,4-diones as PDE 4 inhibitors” (Bioorg Med Chem Lett, 2001):

Each compound was assayed against Phosphodiesterase 4 (Rattus norvegicus) (UniProt P14270+P14646+P14644+P54748) (assay: In vitro inhibitory activity against phosphodiesterase 4 from rat liver at concentration of 3 uM).

Compound | Inhibition
Cn1c(=O)n(Cc2ccccc2)c(=O)c2cc(-c3cccc([N+](=O)[O-])c3)cnc21 | 23.5%
Cn1c(=O)n(Cc2ccccc2)c(=O)c2cc(-c3ccccc3)cnc21 | 31.3%
Cn1c(=O)n(Cc2ccccc2)c(=O)c2cc(-c3ccccc3C(F)(F)F)cnc21 | 53.7%
CCOC(=O)c1cnc2c(c1)c(=O)n(Cc1ccccc1)c(=O)n2C | 43%
Cn1c(=O)n(Cc2ccccc2)c(=O)c2cc(-c3ccccc3F)cnc21 | 46.4%
Cn1c(=O)n(Cc2ccccc2)c(=O)c2cc(Cc3ccccc3)cnc21 | 68.2%
Cn1c(=O)n(Cc2ccccc2)c(=O)c2cc(-c3cccc(C(F)(F)F)c3)cnc21 | 37.6%
Cn1c(=O)n(Cc2ccccc2)c(=O)c2cc(COCc3ccccc3)cnc21 | 49.8%
CCCOCc1cnc2c(c1)c(=O)n(Cc1ccccc1)c(=O)n2C | 46.7%
Cn1c(=O)n(Cc2ccccc2)c(=O)c2cc(COc3ccccc3)cnc21 | 45.1%

Next, values leading:

Inhibition | Compound
47.8% | Cn1c(=O)n(Cc2ccccc2)c(=O)c2cc(-c3ccc(Cl)cc3)cnc21
57.1% | Cn1c(=O)n(Cc2ccccc2)c(=O)c2c(Cc3ccccc3)ccnc21
35.1% | CCOc1ccc(-c2ccnc3c2c(=O)n(Cc2ccccc2)c(=O)n3C)cc1
44% | Cn1c(=O)n(Cc2ccccc2)c(=O)c2cc(-c3ccc(F)cc3)cnc21
69.7% | Cn1c(=O)n(Cc2ccccc2)c(=O)c2c(-c3ccccc3F)ccnc21

The compounds below were run against Phosphodiesterase 4 (Rattus norvegicus, UniProt P14270+P14646+P14644+P54748) (assay: Inhibition of phosphodiesterase 4 from rat liver at 0.3 uM (not determined)).

IC50 | Compound
> 10 µM | Cn1c(=O)n(Cc2ccccc2)c(=O)c2cc(-c3ccccc3)cnc21
